Laboratory results reported in patent US20100104661A1, “DISCONTINUOUS METHODS OF TREATING CANCER” (priority 2006, published 2010).

What was measured:
[1] = test system: AIDS-related Kaposi's sarcoma; settings: 135 mg/m^2 every 3 weeks versus 100 mg/m^2 every 2 weeks; cited from earlier work
[2] = test system: node-positive breast cancer; settings: adjuvant, sequentially to doxorubicin-containing chemotherapy; total population of patients with receptor-positive and receptor-negative tumors; cited from earlier work
[3] = test system: 22Rv1 prostate tumor xenografts; assay: 22Rv1 prostate tumor xenograft, first experiment (lonafarnib 3.5 days on/3.5 days off, docetaxel once weekly); assay type: in vivo, male athymic nude mice; settings: single-agent docetaxel 20 mpk i.p. once weekly; after 3 weeks (21 days)
Experimental: (§1) Intermittent dosing of lonafarnib at 60 mpk BID around the administration of docetaxel was tested in two experiments using the 22Rv1 androgen-independent prostate cancer xenograft model. In both experiments 22Rv1 prostate tumor xenografts were grown in male athymic nude mice. When tumor volumes were approximately 100 mm^3, the animals were randomized (n=10 per treatment group) for grouping. […] In addition, tumor regressions were observed when intermittent lonafarnib was combined with docetaxel.
In the first experiment (see FIG. 1) male mice (n=10 per treatment group) bearing 22Rv1 tumor xenografts were treated with lonafarnib administered at either 30 mpk BID continuously or 60 mpk BID intermittently (3.5 days on/3.5 days off). Docetaxel was administered at 20 mpk once weekly after the fourth dose of lonafarnib. Tumor volumes were measured twice weekly. After 3 weeks (21 days) of treatment, single-agent docetaxel inhibited 22Rv1 tumor growth by 66%. Continuous treatment with single-agent lonafarnib at 30 mpk BID inhibited tumor growth by 85% and intermittent dosing of single-agent lonafarnib at 60 mpk BID inhibited tumor growth by 80%. When combined with weekly administration of docetaxel, continuous treatment with 30 mpk BID lonafarnib caused 22Rv1 tumors to regress by 23%. However, when combined with docetaxel, intermittent lonafarnib (60 mpk BID) caused the tumors to regress by 46%. […]

NSCLC = settings: 100 mg/m^2 in patients previously treated with chemotherapy; cited from earlier work
[4] = test system: 22Rv1 prostate tumor xenografts; assay: 22Rv1 prostate tumor xenograft, second experiment (lonafarnib 5 days on/5 days off, docetaxel once every 10 days); assay type: in vivo, male athymic nude mice; settings: single-agent docetaxel 20 mpk i.p. once every 10 days; after 24 days
Experimental: as §1
The second experiment (see FIG. 3) was also performed with male mice (n=10 per treatment group) bearing 22Rv1 prostate tumor xenografts that were approximately 100 mm^3 in volume. Lonafarnib was administered at 30 mpk BID continuously or 60 mpk BID intermittently (5 days on/5 days off). Docetaxel was administered at 20 mpk once every 10 days after the second dose of lonafarnib. After 24 days of treatment, single-agent docetaxel inhibited 22Rv1 tumor growth by 78%. Continuous treatment with single-agent lonafarnib at 30 mpk BID inhibited tumor growth by 68% and intermittent dosing of single-agent lonafarnib at 60 mpk BID inhibited tumor growth by 78%. When combined with docetaxel, continuous treatment with 30 mpk BID lonafarnib caused 22Rv1 tumors to regress by 10%. However, when combined with docetaxel, intermittent lonafarnib (60 mpk BID) caused the tumors to regress by 37%. […]

| Structure (SMILES) | toxicity of dosing schedules [1] | effect on disease-free and overall survival [2] | inhibition of 22Rv1 tumor growth [3] | toxicity at higher dose (NSCLC) | inhibition of 22Rv1 tumor growth [4] |
| --- | --- | --- | --- | --- | --- |
| CC(=O)O[C@H]1C(=O)[C@@]2(C)[C@H]([C@H](OC(=O)c3ccccc3)[C@]3(O)C[C@H](OC(=O)[C@H](O)[C@@H](NC(=O)c4ccccc4)c4ccccc4)C(C)=C1C3(C)C)[C@]1(OC(C)=O)CO[C@@H]1C[C@@H]2O [Taxol, paclitaxel] | more toxic than the latter | overall favorable effect on disease-free and overall survival |  |  |  |
| CC(=O)O[C@@]12CO[C@@H]1C[C@H](O)[C@@]1(C)C(=O)[C@H](O)C3=C(C)[C@@H](OC(=O)[C@H](O)[C@@H](NC(=O)OC(C)(C)C)c4ccccc4)C[C@@](O)([C@@H](OC(=O)c4ccccc4)[C@H]21)C3(C)C [docetaxel] |  |  | 66% | associated with increased hematologic toxicity, infection, and treatment related mortality | 78% |
